{"source": "patent US20250228865A1", "about": "“COMPOUNDS FOR ENHANCING READ THROUGH OF GENES CONTAINING PREMATURE TERMINATION CODONS AND METHODS FOR MAKING AND USING THE SAME” (Sanofi US Services Inc., priority 2022, published 2025)", "key": {"[1]": {"system": "CFTR G542X", "experiment": "Functional CFTR channel activity, TECC-24 electrophysiology, 16HBE cells (CFTR G542X readthrough)", "format": "cell-based, human", "conditions": "eRF3 modulator (CC-90009) 1 uM", "description": "(§1) 16HBE human bronchial epithelial cells were seeded onto Transwell 24-well filter inserts coated with human collagen type IV. Cells were seeded 7 days prior to functional testing at a density of 1.7×10^5 cells onto the “apical” chamber filter of the Transwell insert. Cells were grown as submerged cultures (200 μL apical/700 μL basolateral) in Minimal Essential Medium (MEM) containing 10% qualified Fetal Bovine Serum and 1% Penicillin/Streptomycin and incubated at 37° C. and 5% CO2. Growth media on cells was replenished with fresh media every 1-3 days prior to test agent treatment day. After 7 days in culture, the CFTR-mediated chloride (Cl^−) equivalent current (Ieq) of the 16HBE cells was recorded, which may typically form electrically tight epithelia with a transepithelial resistance (Rt) of 2000-6000 Ω·cm2 as described below. Forty-eight hours prior to electrophysiological measurements, fresh growth media containing the test agents was applied to both chambers separating filter bound epithelial monolayer.\n(§2) On the day of electrophysiology studies, electrodes of a “Multi-(24-channel) transepithelial current clamp amplifier” (MTECC-24 (TECC-24 for short), EP Devices, Belgium) were soaked in an assay buffer (see below for composition) for at least 2 hours using 24-well Transwell plates without inserts. Cell culture media was replaced in the Transwell assay plates with assay buffer (see below) and the plates were mounted onto a custom-built automated robotic assay platform (Yamaha RCX240S controller) with heated plate holders set at 37° C. for 60 min. After equilibration, transepithelial potential difference (PD) and resistance (Rt) was monitoredat ˜5 min intervals using the TECC-24 transepithelial current clamp. Electrode potential differences were monitored for each pair of Ag/AgCl voltage electrodes by taking voltage measurements from a control (“blank”) plate with matching buffer solutions and 16HBE cells that were not treated with any test agent. PD values for each electrode pair were subtracted from the blank plate from that of the test plates at each time point. Ieq was calculated from the corrected PD values and Rt using Ohm's law. Ieq values were slope corrected to account for measurement drift over time using the equation: Slope corrected value=calculated Ieq−((time x slope)+y-intercept) with the slope and y-intercept calculated from the data points captured during the initial baseline period and following addition of the CFTR inhibitor.\n(§3) The equivalent current (Ieq) traces associated with CFTR channel activation were plotted as baseline subtracted mean±standard deviation from 3-4 separate wells on the 24-well Transwell (n=3-4). There are 4 recording periods, with the first set of data points recorded baseline Ieq currents prior to sequential activation of available CFTR channels with forskolin (10 μM) and then in combination with potentiator VX-770/ivacaftor (1 μM). Recorded the last set of data points in the presence of CFTR inhibitor CFTRinh-172 (20 μM) to confirm that currents are mediated via activation of CFTR channels. The test agents and control/reference compounds were pre-diluted to 10-fold concentrations in assay buffer and added manually using a multi-channel pipette to both the basolateral and apical side of the membrane (test plates only). Employed CFTR-mediated changes in Ieq, (i.e. forskolin/VX-770 activated currents) to measure functional CFTR surface expression or treatment-related functional rescue of mutant CFTR.\n(§4) The magnitude of test agent mediated enhancement of functional CFTR currents was calculated by comparing forskolin/VX-770 stimulated Ieq relative to baseline/CFTRinh-172 Ieq following 48 hour pretreatment with test agent(s) and normalizing to the forskolin/VX-770 stimulated Ieq determined following 48 hour pretreatment with a maximally effective concentration a reference control aminoglycoside agent (typically 110 μM G418). […]"}, "[2]": {"system": "CFTR R1162X", "experiment": "Functional CFTR channel activity, TECC-24 electrophysiology, 16HBE cells (CFTR R1162X readthrough)", "format": "cell-based, human", "description": "as §1, §2, §3, §4"}, "[3]": {"conditions": "RTM 1 uM, eRF3 modulator (CC-90009) 1 uM, ELX-02 100 uM"}}, "data": [{"molecule": "Cc1cccc(C(F)(F)F)c1COc1ccc(-c2nc(CO)n[nH]2)cc1", "note": "[drawing 829]", "values": [{"measurement": "Currents (% of 110 μM G418 (Max effect))", "setting": "[1]; RTM conc. —, ELX-02 100 uM", "result": "83 % of 110 μM G418 (Max effect)"}]}, {"molecule": "OCc1cn(-c2ncc(OCc3c(Cl)cccc3Cl)cn2)cn1", "note": "[drawing 813]", "values": [{"measurement": "Currents (% of 110 μM G418 (Max effect))", "setting": "[2]; RTM 0.5 uM, no eRF3 modulator, Paramomycin 2000 uM", "result": "7 % of 110 μM G418 (Max effect)"}]}, {"molecule": "Cc1cccc(C(F)(F)F)c1COc1ccc(-c2nc(CO)n[nH]2)cc1", "note": "[drawing 830]", "values": [{"measurement": "Currents (% of 110 μM G418 (Max effect))", "setting": "[1]; RTM 1 uM, ELX-02 100 uM", "result": "263 % of 110 μM G418 (Max effect)"}]}, {"molecule": "Cc1cccc(C(F)(F)F)c1COc1ccc(-c2nc(CO)n[nH]2)cc1", "note": "[drawing 806]", "values": [{"measurement": "Currents (% of 110 μM G418 (Max effect))", "setting": "[2]; [3]", "result": "269 % of 110 μM G418 (Max effect)"}]}, {"molecule": "OCc1cn(-c2ncc(OCc3c(Cl)cccc3Cl)cn2)cn1", "note": "[drawing 800]", "values": [{"measurement": "Currents (% of 110 μM G418 (Max effect))", "setting": "[2]; RTM 0.5 uM, eRF3 modulator (CC-90009) 1 uM, ELX-02 100 uM", "result": "473 % of 110 μM G418 (Max effect)"}]}, {"molecule": "O=C1N[C@H](CO)CN1c1ccc(OCc2c(Cl)cccc2Cl)cn1", "note": "[drawing 809]", "values": [{"measurement": "Currents (% of 110 μM G418 (Max effect))", "setting": "[2]; [3]", "result": "266 % of 110 μM G418 (Max effect)"}]}, {"molecule": "OCc1cn(-c2ncc(OCc3c(Cl)cccc3Cl)cn2)cn1", "note": "[drawing 822]", "values": [{"measurement": "Currents (% of 110 μM G418 (Max effect))", "setting": "[1]; RTM 0.5 uM, G418 10 uM", "result": "429 % of 110 μM G418 (Max effect)"}]}, {"molecule": "OCc1cn(-c2ncc(OCc3c(Cl)cccc3Cl)cn2)cn1", "note": "[drawing 814]", "values": [{"measurement": "Currents (% of 110 μM G418 (Max effect))", "setting": "[2]; RTM 0.5 uM, eRF3 modulator (CC-90009) 1 uM, Paramomycin 2000 uM", "result": "183 % of 110 μM G418 (Max effect)"}]}, {"molecule": "OCc1ccn(-c2ncc(OCc3c(Cl)cccc3Cl)cn2)n1", "note": "[drawing 826]", "values": [{"measurement": "Currents (% of 110 μM G418 (Max effect))", "setting": "[1]; RTM conc. —, ELX-02 100 uM", "result": "83 % of 110 μM G418 (Max effect)"}]}, {"molecule": "Cc1cccc(C(F)(F)F)c1COc1ccc(N2CC(CO)OC2=O)cc1", "note": "(stereo not drawn) [drawing 816]", "values": [{"measurement": "Currents (% of 110 μM G418 (Max effect))", "setting": "[2]; RTM 1 uM, eRF3 modulator (CC-90009) 1 uM, G418 10 uM", "result": "423 % of 110 μM G418 (Max effect)"}]}, {"molecule": "OCc1cn(-c2ncc(OCc3c(Cl)cccc3Cl)cn2)cn1", "note": "[drawing 838]", "values": [{"measurement": "Currents (% of 110 μM G418 (Max effect))", "setting": "[1]; RTM 0.5 uM, Paramomycin 2000 uM", "result": "140 % of 110 μM G418 (Max effect)"}]}, {"molecule": "OCc1cn(-c2ncc(OCc3c(Cl)cccc3Cl)cn2)cn1", "note": "[drawing 824]", "values": [{"measurement": "Currents (% of 110 μM G418 (Max effect))", "setting": "[1]; RTM 0.5 uM, ELX-02 100 uM", "result": "421 % of 110 μM G418 (Max effect)"}]}, {"molecule": "OCc1ncn(-c2ncc(OCc3c(Cl)cccc3C(F)(F)F)cn2)n1", "note": "[drawing 810]", "values": [{"measurement": "Currents (% of 110 μM G418 (Max effect))", "setting": "[2]; RTM 3 uM, no eRF3 modulator, ELX-02 100 uM", "result": "102 % of 110 μM G418 (Max effect)"}]}, {"molecule": "OCc1ncn(-c2ncc(OCc3c(Cl)cccc3C(F)(F)F)cn2)n1", "note": "[drawing 836]", "values": [{"measurement": "Currents (% of 110 μM G418 (Max effect))", "setting": "[1]; RTM 3 uM, ELX-02 100 uM", "result": "263 % of 110 μM G418 (Max effect)"}]}, {"molecule": "C[C@H](N)[C@H]1O[C@@H](OC2C(O)C(N)CC(N)C2OC2OC([C@@H](C)O)C(O)C(O)C2N)C(O)C1O", "note": "(stereo partly drawn) [ELX-02, reference compound]", "values": [{"measurement": "Currents (% of 110 μM G418 (Max effect))", "setting": "[2]; RTM conc. —, eRF3 modulator (CC-90009) 1 uM, ELX-02 100 uM", "result": "198 % of 110 μM G418 (Max effect)"}, {"measurement": "Currents (% of 110 μM G418 (Max effect))", "setting": "[1]; RTM conc. —, ELX-02 100 uM", "result": "191 % of 110 μM G418 (Max effect)"}]}, {"molecule": "O=C1N[C@H](CO)CN1c1ccc(OCc2c(Cl)cccc2Cl)cn1", "note": "[drawing 807]", "values": [{"measurement": "Currents (% of 110 μM G418 (Max effect))", "setting": "[2]; RTM 1 uM, no eRF3 modulator, ELX-02 100 uM", "result": "70 % of 110 μM G418 (Max effect)"}]}, {"molecule": "OCc1cn(-c2ncc(OCc3c(Cl)cccc3Cl)cn2)cn1", "note": "[drawing 797]", "values": [{"measurement": "Currents (% of 110 μM G418 (Max effect))", "setting": "[2]; RTM 0.5 uM, no eRF3 modulator, G418 10 uM", "result": "64 % of 110 μM G418 (Max effect)"}]}]}
